{"source": "patent US5340920A", "about": "“Physiologically active porcine peptide (CNP-53)” (Matsuo; Hisayuki, priority 1990, dated 1994)", "molecules": {"B1": {"name": "pBNP-26: porcine brain natriuretic peptide of 26 amino acid residues having a single S-S bond (peptide)", "peptide": "HPLGGAGLASELPGIQELLDRLRDRVSELQAERTDLEPLRQDRGLTEAWEAREAAPTGVLGPRSSIFQVLRGIRSPKTMRDSGCFGRRLDRIGSLSGLGCNVLRRY"}}, "key": {"rats": {"test_system": "rats", "conditions": "administered to rats; Japanese Patent Application No. 105047/1990; cited from earlier work"}, "[1]": {"test": "Diuretic and natriuretic actions of the purified peptide", "format": "in vivo", "conditions": "no method described"}, "chick rectum": {"test_system": "chick rectum", "test": "Chick rectum relaxant activity (method of Currie et al.)", "conditions": "assay system of Currie et al.; compared with CNP-22", "description": "The chick rectum relaxant activity of CNP-53 was measured in accordance with the method of Currie et al. (Currie et al., […])."}, "[2]": {"test_system": "anti-CNP-22 antiserum (antibody #171-4)", "test": "RIA system using anti-CNP-22 antiserum #171-4 and I125 labelled [Tyr0] CNP-22", "format": "binding, rabbit", "conditions": "for cross-reactivity of antibody #171-4: RIA, CNP-22 as standard", "description": "Six milligrams of chemically synthesized CNP-22 and 15 mg of bovine thyroglobulin (product of Sigma Co.) were dissolved in 2 ml of 0.1M phosphate buffer (pH 7.4). To the solution, 100 μl of 5% glutaraldehyde was added and the mixture was agitated at 0° C. for 20 min to have CNP-22 bound to the thyroglobulin. Then, the solution was dialyzed five times against water (500 ml) and twice against 500 ml of 50 mM phosphate buffer (pH 7.4) containing 80 mM NaCl, whereby excess salts and reagents were removed from the reaction solution. Subsequently, 50 mM phosphate buffer containing 80 mM NaCl was added to the reaction solution to make a total volume of 12 ml. Thereafter, an equal volume of Freund's complete adjuvant was added to form an emulsion. A rabbit (New Zealand White) was repeatedly immunized with the emulsion at 20-day intervals so as to prepare an anti-CNP-22 antiserum. The thus prepared antiserum was named \"#171-4\".\nIn the first step, [Tyr°] CNP-22 [a peptide having a tyrosine residue (Tyr) added to the N-terminus of CNP-22] was chemically synthesized. Then, I^125 was introduced into the N-terminal Tyr residue by the method of Miyata et al. (Miyata, A. et al., Biochem. Biophys. Res. Commun., 129, 248-255, 1985) and the I^125 labelled monoiodo(Tyr°] CNP-22 was separated and isolated by reverse-phase HPLC.\nIn the next step, an RIA system was constructed by the following method using the thus I125 labelled [Tyr°] CNP-22 and the antibody (#171-4) prepared in Example 1-A.\nAs a buffer for the RIA system, 50 mM phosphate buffer (pH 7.4) containing 80 mM NaCl, 0.1% Triton X-100, 25 mM EDTA, 0.05% NaN3, 3.1% dextran T-40 and 0.25% BSA (as treated with N-ethylmaleimide) was used. A standard CNP-22 solution or assay sample (100 μl) and the antibody #171-4 prepared in Example 1-A (100 μl of a 60,000-fold dilution) were added to the buffer and the mixture was subjected to reaction at 4° C. for 24 h. […] Thereafter, polyethylene glycol was added and the radioactivity of the resulting precipitate was measured with a gamma-counter (ARC-600 of Aloka Co.)."}}, "data": [{"molecule": "CNP-22: C-type natriuretic peptide of 22 amino acid residues from porcine brain, single S-S bond, no C-terminal tail (GLSKGCFGLKLDRIGSMSGLGC)", "values": [{"measurement": "natriuretic and hypotensive actions", "setting": "rats", "value": "natriuretic and hypotensive actions"}]}, {"molecule": "CNP-53: novel porcine brain peptide of 53 amino acid residues containing CNP-22 at the C-terminus, intramolecular S-S bond Cys37-Cys53 (DLRVDTKSRAAWARLLHEHPNARKYKGGNKKGLSKGCFGLKLDRIGSMSGLGC)", "values": [{"measurement": "diuretic and natriuretic actions", "setting": "[1]", "value": "diuretic and natriuretic actions"}, {"measurement": "chick rectum relaxant activity", "setting": "chick rectum", "value": "comparable chick rectum relaxant activity to CNP-22"}, {"measurement": "immunoreactivity per molecule with the anti-CNP-22 antiserum", "setting": "[2]; RIA of Example 1, assuming 53 residues containing CNP-22 at the C-terminus, compared with CNP-22", "value": "comparable to that of CNP-22"}]}, {"molecule": "α-ANP: α-type atrial natriuretic peptide, single-stranded peptide of 28 amino acids with a single S-S bond [reference compound]", "values": [{"measurement": "cross-reactivity of antibody #171-4", "setting": "[2]", "value": 0.015, "unit": "%"}]}, {"molecule": "B1", "values": [{"measurement": "cross-reactivity of antibody #171-4", "setting": "[2]", "value": 0.46, "unit": "%"}]}]}
